Structures can show the parent of a compound that is named as a salt.
How the values were obtained:
[1] = test system: ENR+CD organoids (ISC to Paneth cell differentiation); assay: Primary screen: basal (non-stimulated) lysozyme secretion LYZ.NS, 2.5-D 384-well ENR+CD organoid differentiation; type: cell-based, mouse
Text: (§1) High-throughput screening.

[2] = test system: ENR+CD organoids (ISC to Paneth cell differentiation); assay: Primary screen: CCh-stimulated lysozyme secretion LYZ.S, 2.5-D 384-well ENR+CD organoid differentiation; type: cell-based, mouse; conditions: primary screen
Text: as §1

ENR+CD organoids = assay: Primary screen: ATP (CellTiter-Glo 3D, CTG) cell number/viability, 2.5-D 384-well ENR+CD organoids; conditions: primary screen; for Z.CTG: standard z score;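 on all read-outs here: compounds given at plating and again on day 3 over a 6-day differentiation from ENR+CV stem-cell-enriched precursors, ATP measured on day 6, plate median as control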
[3] = primary screen, dose 0.08 uM, FC relative to plate median
[4] = primary screen, dose 0.08 uM, standard z score
[5] = primary screen, dose 0.40 uM, FC relative to plate median
[6] = primary screen, dose 0.40 uM, standard z score
[7] = primary screen, dose 2.00 uM, FC relative to plate median
[8] = primary screen, dose 2.00 uM, standard z score
[9] = primary screen, dose 10.00 uM, FC relative to plate median
[10] = primary screen, dose 10.00 uM, standard z score
[11] = dose 0.08 uM, FC relative to plate median
[12] = dose 0.40 uM, FC relative to plate median
[13] = dose 2.00 uM, FC relative to plate median
[14] = dose 10.00 uM, FC relative to plate median
[15] = primary screen; dose 0.08 uM; FC vs plate median
[16] = primary screen; dose 0.40 uM; FC vs plate median
[17] = primary screen; dose 2.00 uM; FC vs plate median
[18] = primary screen; dose 10.00 uM; FC vs plate median
[19] = dose 0.08 uM, FC vs plate median
[20] = dose 0.40 uM, FC vs plate median
[21] = dose 2.00 uM, FC vs plate median
[22] = dose 10.00 uM, FC vs plate median

Row | SMILES | Dose.FC.LYZ.NS ([1]; primary screen, dose 0.08 uM) [log2 fold change] | Z.LYZ.NS (standard z score) ([1]; primary screen, dose 0.08 uM) | Dose.FC.LYZ.NS ([1]; primary screen, dose 0.40 uM) [log2 fold change] | Z.LYZ.NS (standard z score) ([1]; primary screen, dose 0.40 uM) | Dose.FC.LYZ.NS ([1]; primary screen, dose 2.00 uM) [log2 fold change] | Z.LYZ.NS (standard z score) ([1]; primary screen, dose 2.00 uM) | Dose.FC.LYZ.NS ([1]; primary screen, dose 10.00 uM) [log2 fold change] | Z.LYZ.NS (standard z score) ([1]; primary screen, dose 10.00 uM) | Dose.FC.LYZ.S ([2]; dose 0.08 uM) [log2 fold change] | Dose.FC.LYZ.S ([2]; dose 0.40 uM) [log2 fold change] | Dose.FC.LYZ.S ([2]; dose 2.00 uM) [log2 fold change] | Dose.FC.LYZ.S ([2]; dose 10.00 uM) [log2 fold change] | Dose.FC.CTG (ENR+CD organoids; dose 0.08 uM) [log2 fold change] | Dose.FC.CTG (ENR+CD organoids; dose 0.40 uM) [log2 fold change] | Dose.FC.CTG (ENR+CD organoids; dose 2.00 uM) [log2 fold change] | Dose.FC.CTG (ENR+CD organoids; dose 10.00 uM) [log2 fold change] | Z.LYZ.NS [1, 4] | Z.LYZ.NS [1, 6] | Z.LYZ.NS [1, 8] | Z.LYZ.NS [1, 10] | further results
1 | CC[C@@H]1C(=O)N(C)c2cnc(Nc3ccc(C(=O)NC4CCN(C)CC4)cc3OC)nc2N1C1CCCC1 [BI 2536] | −0.104 | −0.907 | −0.129 | −1.121 | −0.134 | −1.168 | −0.109 | −0.953 | −0.163 | −0.220 | −0.224 | −0.185 | 0.029 | −0.534 | −0.511 | −1.028 | – | – | – | – | –
2 | O=S(=O)(c1ccccc1)N(CC(F)(F)F)c1ccc(C(O)(C(F)(F)F)C(F)(F)F)cc1 [T0901317] | – | – | – | – | – | – | – | – | – | – | – | – | – | – | – | – | 0.748 | 0.369 | 0.644 | −0.130 | Dose.FC.LYZ.NS [1, 3]: 0.086 log2 fold change; Dose.FC.LYZ.NS [1, 5]: 0.042 log2 fold change; Dose.FC.LYZ.NS [1, 7]: 0.074 log2 fold change; Dose.FC.LYZ.NS [1, 9]: −0.015 log2 fold change; Dose.FC.LYZ.S [2, 11]: 0.111 log2 fold change; Dose.FC.LYZ.S [2, 12]: 0.077 log2 fold change; Dose.FC.LYZ.S [2, 13]: 0.070 log2 fold change; Dose.FC.LYZ.S [2, 14]: −0.034 log2 fold change; Dose.FC.CTG (ENR+CD organoids; [11]): 0.047 log2 fold change; Dose.FC.CTG (ENR+CD organoids; [12]): 0.178 log2 fold change; Dose.FC.CTG (ENR+CD organoids; [13]): 0.096 log2 fold change; Dose.FC.CTG (ENR+CD organoids; [14]): 0.114 log2 fold change
3 | CO[C@H]1C[C@@H]2CC[C@@H](C)[C@@](O)(O2)C(=O)C(=O)N2CCCC[C@H]2C(=O)O[C@H]([C@H](C)C[C@@H]2CC[C@@H](OCCO)[C@H](OC)C2)CC(=O)[C@H](C)/C=C(\C)[C@@H](O)[C@@H](OC)C(=O)[C@H](C)C[C@H](C)/C=C/C=C/C=C/1C [Everolimus (RAD001)] | 0.068 | – | 0.110 | – | −0.003 | – | −0.024 | – | −0.012 | −0.007 | −0.039 | −0.096 | 0.392 | 0.127 | 0.132 | −0.111 | – | – | – | – | Z.LYZ.NS ([1]; primary screen, standard z score, dose 0.08 uM): 0.590; Z.LYZ.NS ([1]; primary screen, standard z score, dose 0.40 uM): 0.956; Z.LYZ.NS ([1]; primary screen, standard z score, dose 2.00 uM): −0.030; Z.LYZ.NS ([1]; primary screen, standard z score, dose 10.00 uM): −0.210; Z.CTG (ENR+CD organoids; dose 0.08 uM): 0.936; Z.CTG (ENR+CD organoids; dose 0.40 uM): 0.304; Z.CTG (ENR+CD organoids; dose 2.00 uM): 0.314; Z.CTG (ENR+CD organoids; dose 10.00 uM): −0.266
4 | c1ccc(NCc2ccc(CNc3ccccn3)cc2)nc1 [WZ811] | 0.154 | 1.337 | 0.019 | 0.162 | 0.094 | 0.815 | 0.005 | 0.045 | 0.296 | 0.007 | 0.074 | 0.019 | 0.140 | −0.034 | 0.077 | 0.044 | – | – | – | – | Z.CTG (standard z score) (ENR+CD organoids; dose 0.08 uM): 0.334; Z.CTG (standard z score) (ENR+CD organoids; dose 0.40 uM): −0.082; Z.CTG (standard z score) (ENR+CD organoids; dose 2.00 uM): 0.184; Z.CTG (standard z score) (ENR+CD organoids; dose 10.00 uM): 0.104
5 | CNC(=C[N+](=O)[O-])NCCSCc1ccc(CN(C)C)o1 [Ranitidine] | – | – | – | – | – | – | – | – | – | – | – | – | – | – | – | – | −0.234 | 0.095 | −0.389 | −0.401 | Dose.FC.LYZ.NS [1, 3]: −0.027 log2 fold change; Dose.FC.LYZ.NS [1, 5]: 0.011 log2 fold change; Dose.FC.LYZ.NS [1, 7]: −0.045 log2 fold change; Dose.FC.LYZ.NS [1, 9]: −0.046 log2 fold change; Dose.FC.LYZ.S [2, 11]: −0.020 log2 fold change; Dose.FC.LYZ.S [2, 12]: 0.071 log2 fold change; Dose.FC.LYZ.S [2, 13]: −0.040 log2 fold change; Dose.FC.LYZ.S [2, 14]: −0.043 log2 fold change; Dose.FC.CTG (ENR+CD organoids; [11]): −0.051 log2 fold change; Dose.FC.CTG (ENR+CD organoids; [12]): 0.155 log2 fold change; Dose.FC.CTG (ENR+CD organoids; [13]): −0.069 log2 fold change; Dose.FC.CTG (ENR+CD organoids; [14]): −0.262 log2 fold change
6 | Cc1cc(C(C)(C)C)c(O)c(C)c1CC1=NCCN1 [Oxymetazoline HCl] | – | – | – | – | – | – | – | – | – | – | – | – | – | – | – | – | 0.515 | 0.134 | 0.199 | 0.065 | Dose.FC.LYZ.NS [1, 15]: 0.059 log2 fold change; Dose.FC.LYZ.NS [1, 16]: 0.015 log2 fold change; Dose.FC.LYZ.NS [1, 17]: 0.023 log2 fold change; Dose.FC.LYZ.NS [1, 18]: 0.007 log2 fold change; Dose.FC.LYZ.S [2, 19]: 0.143 log2 fold change; Dose.FC.LYZ.S [2, 20]: 0.116 log2 fold change; Dose.FC.LYZ.S [2, 21]: −0.012 log2 fold change; Dose.FC.LYZ.S [2, 22]: −0.046 log2 fold change; Dose.FC.CTG (ENR+CD organoids; [19]): 0.143 log2 fold change; Dose.FC.CTG (ENR+CD organoids; [20]): 0.118 log2 fold change; Dose.FC.CTG (ENR+CD organoids; [21]): −0.007 log2 fold change; Dose.FC.CTG (ENR+CD organoids; [22]): 0.118 log2 fold change
7 | Cc1cc(C)nc(NS(=O)(=O)c2ccc(NC(=S)NC(=O)COc3ccc(Br)cc3Cl)cc2)n1 [ZCL278] | −0.084 | −0.729 | −0.037 | −0.325 | 0.025 | 0.218 | 0.015 | 0.130 | −0.107 | 0.077 | −0.079 | −0.080 | −0.964 | 0.018 | −0.228 | −0.104 | – | – | – | – | Z.CTG (standard z score) (ENR+CD organoids; dose 0.08 uM): −2.303; Z.CTG (standard z score) (ENR+CD organoids; dose 0.40 uM): 0.044; Z.CTG (standard z score) (ENR+CD organoids; dose 2.00 uM): −0.545; Z.CTG (standard z score) (ENR+CD organoids; dose 10.00 uM): −0.247
8 | COc1ccc(-c2nc3ccc(C4=NNC(=O)CC4C)cc3[nH]2)cc1 (centres unmarked) [Pimobendan] | – | – | – | – | – | – | – | – | – | – | – | – | – | – | – | – | 0.328 | 0.546 | 1.121 | −0.577 | Dose.FC.LYZ.NS [1, 15]: 0.038 log2 fold change; Dose.FC.LYZ.NS [1, 16]: 0.063 log2 fold change; Dose.FC.LYZ.NS [1, 17]: 0.129 log2 fold change; Dose.FC.LYZ.NS [1, 18]: −0.066 log2 fold change; Dose.FC.LYZ.S [2, 19]: 0.129 log2 fold change; Dose.FC.LYZ.S [2, 20]: 0.051 log2 fold change; Dose.FC.LYZ.S [2, 21]: 0.194 log2 fold change; Dose.FC.LYZ.S [2, 22]: −0.134 log2 fold change; Dose.FC.CTG (ENR+CD organoids; [19]): −0.022 log2 fold change; Dose.FC.CTG (ENR+CD organoids; [20]): 0.193 log2 fold change; Dose.FC.CTG (ENR+CD organoids; [21]): 0.206 log2 fold change; Dose.FC.CTG (ENR+CD organoids; [22]): 0.139 log2 fold change

Source: patent publication US20220323406A1, “METHODS AND COMPOSITIONS FOR DIFFERENTIATING STEM CELLS” (Massachusetts Institute of Technology, priority 2019, published 2022)
